Experimental data reported in article PMC5577610, “Nine New Triterpene Glycosides, Magnumosides A1–A4, B1, B2, C1, C2 and C4, from the Vietnamese Sea Cucumber Neothyonidium (=Massinium) magnum: Structures and Activities against Tumor Cells Independently and in Synergy with Radioactive Irradiation” (Marine Drugs, 2017).
Structures can show the parent of a compound that is named as a salt.

Assays:
[1] = system: human colorectal adenocarcinoma DLD-1 cells; assay: Cytotoxicity against DLD-1 cells (MTS assay); format: cell-based; conditions: for IC50: Homo sapiens, DLD-1, read-out: IC50 (50% reduction in cell viability), DLD-1 cells, 24 h, 0–100 µM
Procedure: (§1) Human colorectal adenocarcinoma cells DLD-1 were cultured in RPMI-1640 medium. Culture media was supplemented with 10% fetal bovine serum (FBS) and penicillin—streptomycin solution. Cells were maintained in a sterile environment and kept in an incubator at 5% CO2 and 37 °C to promote growth. DLD-1 cells were sub-cultured every 3–4 days by their rinsing with phosphate buffered saline (PBS), adding trypsin to detach the cells from the tissue culture flask, and transferring 10–20% of the harvested cells to a new flask containing fresh growth media.
DLD-1 cells (1.0 × 10^4/well) were seeded in 96-well plates for 24 h at 37 °C in 5% CO2 incubator. The cells were treated with the compounds 1–9 at concentrations range from 0 to 100 µM for additional 24 h. Subsequently, cells were incubated with 15 µL MTS reagent for 3 h, and the absorbance of each well was measured at 490/630 nm using microplate reader “Power Wave XS” (Bio Tek, Winooski, VT, USA). All the experiments were repeated three times, and the mean absorbance values were calculated. The results are expressed as the percentage of inhibition that produced a reduction in absorbance by compound’s treatment compared to the non-treated cells (control).

[2] = Cytotoxic activity (MTT) against the ascites form of mouse Ehrlich carcinoma cells; format: cell-based; conditions: mouse
Procedure: (§2) The spleenocytes from CD-1 line mice were used. The spleen was isolated from mice and homogenized. The spleenocytes were washed thrice and resuspended with RPMI-1640 medium contained gentamicine 8 μg/mL (Biolot, Saint Petersburg, Russia). The museum tetraploid strain of murine ascites Ehrlich carcinoma cells from the All-Russian cancer center RAMS (Moscow, Russia) was used. The cells of the ascites Ehrlich carcinoma were separated from ascites, which were collected on day 7 after inoculation in mouse CD-1 line. The cells were washed of ascites thrice and then resuspended in liquid media DMEM with L-Glutamine (Biolot, Saint Petersburg, Russia).
(§3) The solutions of tested substances in different concentrations (20 µL) and cell suspension (200 µL) were added in wells of 96-well plate and incubated over night at 37 °C and 5% CO2. After incubation the cells were sedimented by centrifugation, 200 µL of medium from each well were collected and 100 µL of pure medium were added. Then 10 µL of MTT solution […] (Sigma, St. Louis, MO, USA) were added in each well. Plate was incubated 4 h, after that 100 µL SDS-HCl were added to each well and plate was incubated at 37 °C 4–18 h. Optical density was measured at 570 nm and 630–690 nm. The activity of the substances was calculated as the ratio of the dead cells to general cells amount (ED50). Typicoside A1 [28] and cucumarioside A2-2 [11] were used as positive controls.

mouse erythrocytes = format: cell-based; conditions: for Hemolytic action (in words): mouse erythrocytes
Procedure: The erythrocytes were washed thrice with 0.9% NaCl, centrifuged (450 g) on a centrifuge […] (Heraeus, Hanau, Germany) for 5 min followed by re-suspending in phosphate-buffered saline (PBS), pH 7.2-7.4. […] ED50 was calculated using SigmaPlot 3.02 software (Jandel Scientific, San Rafael, CA, USA). […] The erythrocyte suspension in phosphate-buffered saline, pH 7.2-7.4 (PBS) with 20 μL of the solvent without a tested compound was used as negative control.

[3] = Cytotoxic activity (MTT) against mouse spleenocytes; format: cell-based; conditions: CD-1, mouse
Procedure: as §2, §3

mouse spleenocytes = assay: as above; format: cell-based
Procedure: as §2, §3

[4] = system: human colorectal adenocarcinoma DLD-1 cells; assay: Radioactive irradiation plus compounds, DLD-1 cell proliferation (MTS); format: cell-based; conditions: compounds 2 µM, radiation 4 Gy, 96 h, MTS assay, read-out: Increase of the inhibitory effect from radiation on proliferation
Procedure: Figure 7 The effect of radioactive irradiation and a combination of radioactive irradiation and the compounds 3, 7–9 on DLD-1 cancer cell proliferation. DLD-1 cells (8.0 × 10^3) were treated with radiation 4 Gy and the compounds 3, 7–9 (2 µM) for 96 h. Cell viability was estimated using the MTS assay. Data are represented as the mean ± SD as determined from triplicate experiments. A Student’s t-test was used to evaluate the data with the following significance levels: * p < 0.05, ** p < 0.01.
DLD-1 cells (8 × 10^3) cells were seeded in 96-well plates in […] of RPMI-1640/10%FBS medium at 37 °C in a 5% CO2 incubator for 24 h. Then the cells were treated with 2 µM of 3, 7–9 for additional 24, 48, 72 or 96 h at 37 °C in a 5% CO2 atmosphere. The reaction was terminated by adding MTS reagent to each well as described in the Section 3.5.5.
Irradiation was delivered at room temperature using single doses of X-ray system XPERT 80 (KUB Technologies, Inc, Milford, CT, USA). The doses were from 4 to 8 Gy for colony formation assay. The absorber dose was measured using X-ray radiation clinical dosimeter DRK-1 (Akselbant, Moscow, Russia).
DLD-1 cells (5.0 × 10^5) were plated at 60 mm dishes and incubated for 24 h. After the incubation, the cells were cultured in the presence or absence of 2 μM 3, 7–9 for additional 24 h before irradiation at the dose of 4 Gy. Immediately after irradiation, cells were returned to the incubator for recovery. Three hour later, the cells were harvested and used for soft agar assay or proliferation assay to establish the synergism of radioactive irradiation and investigated compounds effects on colony formation or proliferation of tested cells.

[5] = system: human colorectal adenocarcinoma DLD-1 cells; assay: Soft agar assay, colony formation of DLD-1 cells; format: cell-based; conditions: 14 days; for Reduction of colonies size: 10 µM; for inhibition at 10 µM: Homo sapiens, DLD-1, 336 h, read-out: Inhibition of spontaneous colony formation (number of colonies)
Procedure: as §1
DLD-1 cells (8.0 × 10^3) were seeded in 6-well plate and treated with the 3, 7–9 (10 µM) in 1 mL of 0.3% Basal Medium Eagle (BME) agar containing 10% FBS, 2 mM L-glutamine, and 25 µg/mL gentamicin. The cultures were maintained at 37 °C in a 5% CO2 incubator for 14 days, and the cell’s colonies were scored using a microscope “Motic AE 20” (Scientific Instrument Company, Campbell, CA, USA) and the Motic Image Plus computer program (Scientific Instrument Company, Campbell, CA, USA).

[6] = system: ascites form of mouse Ehrlich carcinoma cells; assay: Cytotoxic activity (MTT) against the ascites form of mouse Ehrlich carcinoma cells; format: cell-based; conditions: ascites form of mouse Ehrlich carcinoma cells, MTT, incubated over night
Procedure: as §2, §3

[7] = system: Lewis lung carcinoma cell xenograft tumor; design: method as in PMID 25738799; conditions: C57BL/6 mice bearing a Lewis lung carcinoma cell xenograft tumor; cited from earlier work
[8] = system: human lung carcinoma A549 cells; design: method as in PMID 25738799; conditions: cited from earlier work
[9] = system: human lung carcinoma H1299 cells; design: method as in PMID 25738799; conditions: cited from earlier work

CC1OC(OC2C(OC3CCC4(C)C5CCC67C(=O)OC(CC6(C)C5=CCC4C3(C)C)C7C3(C)CCC(C(C)(C)O)O3)OCC(OS(=O)(=O)O)C2O)C(O)C(O)C1O [Compound 1, 3β-O-[β-D-quinovopyranosyl-(1→2)-4-O-sodium sulfate-β-D-xylopyranosyl]-9βH,20(S),24(S)-epoxy-25-hydroxylanosta-7-ene-18(16)-lactone]
Cytotoxic effect against DLD-1 cells (in words) ([1]; 0–100 µM, 24 h): did not possessed cytotoxic effect | IC50 [1]: > 100 µM | IC50 [2]: > 100 µM | Hemolytic action (in words) (mouse erythrocytes): inactive | IC50 [3]: > 100 µM | Cytotoxic action against spleenocytes (in words) (mouse spleenocytes; up to the ultimate investigated concentration of 100 μM): inactive

C=C(C)CCCC(C)(O)C1C2CC3(C)C4=CCC5C(C)(C)C(OC6OCC(OS(=O)(=O)O)C(O)C6OC6OC(C)C(O)C(O)C6O)CCC5(C)C4CCC13C(=O)O2 [Compound 3, 3β-O-[β-D-quinovopyranosyl-(1→2)-4-O-sodium sulfate-β-D-xylopyranosyl]-9βH,20(S)-hydroxylanosta-7,25-diene-18(16)-lactone]
IC50 [1]: 30.3 µM | inhibition at 2 µM [4]: > 30% | IC50 [2]: 18.95 ± 0.03 µM | IC50 [3]: 19.2 ± 0.03 µM | Reduction of colonies size [5]: 49% | inhibition at 10 µM [5]: 22%

C=C(C)C(O)CCC(C)(O)C1C2CC3(C)C4=CCC5C(C)(C)C(OC6OCC(OS(=O)(=O)O)C(O)C6OC6OC(C)C(OC7OCC(OC8OC(COS(=O)(=O)O)C(O)C(OC)C8O)C(O)C7O)C(O)C6O)CCC5(C)C4CCC13C(=O)O2 [Compound 8, 3β-O-[6-O-sodium sulfate-3-O-methyl-β-D-glucopyranosyl-(1→3)-β-D-xylopyranosyl-(1→4)-β-D-quinovopyranosyl-(1→2)-4-O-sodium sulfate-β-D-xylopyranosyl]-9βH,20(S),24(S)-dihydroxylanosta-7,25-diene-18(16)-lactone]
IC50 [1]: 37.1 µM | inhibition at 2 µM [4]: > 30% | IC50 [2]: 37.5 µM | Hemolytic action (in words) (mouse erythrocytes): significant effects | IC50 [3]: 17.3 ± 0.43 µM | Reduction of colonies size [5]: less than 20% | inhibition at 10 µM [5]: < 20%

COC1C(O)C(COS(=O)(=O)O)OC(OC2COC(OC3C(C)OC(OC4C(OC5CCC6(C)C7CCC89C(=O)OC(CC8(C)C7=CCC6C5(C)C)C9C(C)(O)CCC=C(C)C)OCC(OS(=O)(=O)O)C4O)C(O)C3O)C(O)C2O)C1O [Compound 9, 3β-O-[6-O-sodium sulfate-3-O-methyl-β-D-glucopyranosyl-(1→3)-β-D-xylopyranosyl-(1→4)-β-D-quinovopyranosyl-(1→2)-4-O-sodium sulfate-β-D-xylopyranosyl]-9βH,20(S)-hydroxylanosta-7,24-diene-18(16)-lactone]
IC50 [1]: 33.9 µM | inhibition at 2 µM [4]: 45% | IC50 [2]: 35.06 ± 0.18 µM | IC50 [3]: 12.2 ± 0.33 µM | Reduction of colonies size [5]: less than 20% | inhibition at 10 µM [5]: < 20%

C=C(C)CCCC1(C)OC(=O)C23CCC4C(=CCC5C(C)(C)C(OC6OCC(OS(=O)(=O)[O-])C(O)C6OC6OC(C)C(OC7OC(CO)C(O)C(OC8OC(CO)C(O)C(OC)C8O)C7O)C(O)C6OC6OCC(O)C(O)C6O)CCC45C)C2(C)CC(=O)C13.[Na+] (stereo not shown) [Cucumarioside A2-2, reference compound]
IC50 [6]: 1.39 ± 0.015 µM | Hemolytic Activity, ED50 (mouse erythrocytes; CD-1 mouse erythrocytes, 1 h at 37 °C, dose causing 50% of hemolysis): 0.82 ± 0.02 μM/mL | IC50 (mouse spleenocytes; CD-1 mouse spleenocytes, MTT, incubated over night): 1.21 ± 0.02 µM

CC(C)=CCC[C@](C)(O)[C@H]1CC[C@]2(C)[C@@H]1[C@H](O)C[C@@H]1[C@@]3(C)CC[C@H](O[C@@H]4O[C@H](CO)[C@@H](O)[C@H](O)[C@H]4O[C@@H]4O[C@H](CO)[C@@H](O)[C@H](O)[C@H]4O)C(C)(C)[C@@H]3CC[C@]12C [ginsenoside Rg3]
Efficacy of radiation therapy (in words) [7]: significantly enhanced the efficacy of radiation therapy | Sensitization to γ-radiation (in words) [8]: sensitized | Sensitization to γ-radiation (in words) [9]: sensitized
